In PubChem BioAssay AID1963966 (Molecular Pharmacology Branch, DTP, NCI, 2024):

Test system: 935938-334-R-J1-PDC spheroids with HUVEC/MSC, viability
Assay: Anticancer human tumor 935938-334-R-J1-PDC patient-derived small intestine adenocarcinoma cell line growth inhibition [PI3K]
Settings: for IC50: curve of first compound; for viability, T/C: stronger effect = lower value
How it was run: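 Targeted small molecules plus PI3K inhibitors, half-log dose series from Cmax (default top 10 microM), were applied to heterotypic spheroids of cancer cells with HUVEC and MSCs. Viability indicated growth inhibition.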

[1] = second compound 0.00316 µM, first compound 0.0316 µM
[2] = second compound 0.00316 µM, first compound 0.1 µM
[3] = second compound 0.00316 µM, first compound 0.316 µM
[4] = second compound 0.00316 µM, first compound 1 µM
[5] = second compound 0.01 µM, first compound 0.0316 µM
[6] = second compound 0.01 µM, first compound 0.1 µM
[7] = second compound 0.01 µM, first compound 0.316 µM
[8] = second compound 0.01 µM, first compound 1 µM
[9] = second compound 0.0316 µM, first compound 0.00316 µM
[10] = second compound 0.0316 µM, first compound 0.01 µM
[11] = second compound 0.0316 µM, first compound 0.0316 µM
[12] = second compound 0.0316 µM, first compound 0.1 µM
[13] = second compound 0.0316 µM, first compound 0.316 µM
[14] = second compound 0.0316 µM, first compound 1 µM
[15] = second compound 0.1 µM, first compound 0.00316 µM
[16] = second compound 0.1 µM, first compound 0.01 µM
[17] = second compound 0.1 µM, first compound 0.0316 µM
[18] = second compound 0.1 µM, first compound 0.1 µM
[19] = second compound 0.1 µM, first compound 0.316 µM
[20] = second compound 0.1 µM, first compound 1 µM
[21] = second compound 0.316 µM, first compound 0.00316 µM
[22] = second compound 0.316 µM, first compound 0.01 µM
[23] = second compound 0.316 µM, first compound 0.0316 µM
[24] = second compound 0.316 µM, first compound 0.1 µM
[25] = second compound 0.316 µM, first compound 0.316 µM
[26] = second compound 0.316 µM, first compound 1 µM
[27] = second compound 1 µM, first compound 0.00316 µM
[28] = second compound 1 µM, first compound 0.01 µM
[29] = second compound 1 µM, first compound 0.0316 µM
[30] = second compound 1 µM, first compound 0.1 µM
[31] = second compound 1 µM, first compound 0.316 µM
[32] = second compound 1 µM, first compound 1 µM
[33] = second compound 3.16 µM, first compound 0.00316 µM
[34] = second compound 3.16 µM, first compound 0.01 µM
[35] = second compound 3.16 µM, first compound 0.0316 µM
[36] = second compound 3.16 µM, first compound 0.1 µM
[37] = second compound 10 µM, first compound 0.00316 µM
[38] = second compound 10 µM, first compound 0.01 µM
[39] = second compound 10 µM, first compound 0.0316 µM
[40] = second compound 10 µM, first compound 0.1 µM
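Further: compound exposure lasted seven days before viability was read.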
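Wherever viability, T/C is given: percent of vehicle DMSO treated spheroid viability so 100% = untreated.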

## CCN1CCN(Cc2ccc(Nc3ncc(F)c(-c4cc(F)c5nc(C)n(C(C)C)c5c4)n3)nc2)CC1 + COc1c(OCCCN2CCOCC2)ccc2c3n(c(=NC(=O)c4cnc(N)nc4)nc12)CCN3
Second compound 0.00316 µM
  IC50: 296 nM
Second compound 0.01 µM
  IC50: 582 nM
Second compound 0.0316 µM
  IC50: 91.8 nM
Second compound 0.1 µM
  IC50: < 3.16 nM
Second compound 0.316 µM
  IC50: < 3.16 nM
Second compound 1 µM
  IC50: < 3.16 nM
Second compound 0.00316 µM, first compound 0.00316 µM
  viability, T/C: 80.1%
Second compound 0.00316 µM, first compound 0.01 µM
  viability, T/C: 93.5%
[1]
  viability, T/C: 89.8%
[2]
  viability, T/C: 72%
[3]
  viability, T/C: 49.9%
[4]
  viability, T/C: 43.5%
Second compound 0.01 µM, first compound 0.00316 µM
  viability, T/C: 97.4%
Second compound 0.01 µM, first compound 0.01 µM
  viability, T/C: 74%
[5]
  viability, T/C: 68.6%
[6]
  viability, T/C: 60.4%
[7]
  viability, T/C: 51.8%
[8]
  viability, T/C: 47.1%
[9]
  viability, T/C: 66.5%
[10]
  viability, T/C: 66.1%
[11]
  viability, T/C: 60.8%
[12]
  viability, T/C: 47.8%
[13]
  viability, T/C: 38.8%
[14]
  viability, T/C: 30.3%
[15]
  viability, T/C: 45.9%
[16]
  viability, T/C: 40.7%
[17]
  viability, T/C: 37%
[18]
  viability, T/C: 37.7%
[19]
  viability, T/C: 29.6%
[20]
  viability, T/C: 28.4%
[21]
  viability, T/C: 36.2%
[22]
  viability, T/C: 33.8%
[23]
  viability, T/C: 27.1%
[24]
  viability, T/C: 29.6%
[25]
  viability, T/C: 33.1%
[26]
  viability, T/C: 30.8%
[27]
  viability, T/C: 32.6%
[28]
  viability, T/C: 35%
[29]
  viability, T/C: 35.6%
[30]
  viability, T/C: 28.5%
[31]
  viability, T/C: 32.7%
[32]
  viability, T/C: 28.6%

## Cn1ncnc1[C@H]1c2n[nH]c(=O)c3cc(F)cc(c23)N[C@@H]1c1ccc(F)cc1 + CC(Nc1ncnc2nc[nH]c12)c1cc2cccc(Cl)c2c(=O)n1-c1ccccc1
Second compound 0.0316 µM
  IC50: > 100 nM
Second compound 0.1 µM
  IC50: > 100 nM
Second compound 0.316 µM
  IC50: > 100 nM
Second compound 1 µM
  IC50: > 100 nM
Second compound 3.16 µM
  IC50: > 100 nM
Second compound 10 µM
  IC50: > 100 nM
Second compound 0.0316 µM, first compound 0.000316 µM
  viability, T/C: 95.3%
Second compound 0.0316 µM, first compound 0.001 µM
  viability, T/C: 84.7%
[9]
  viability, T/C: 82.9%
[10]
  viability, T/C: 108%
[11]
  viability, T/C: 102%
[12]
  viability, T/C: 84.3%
Second compound 0.1 µM, first compound 0.000316 µM
  viability, T/C: 86.7%
Second compound 0.1 µM, first compound 0.001 µM
  viability, T/C: 84.5%
[15]
  viability, T/C: 91.8%
[16]
  viability, T/C: 80.2%
[17]
  viability, T/C: 85.1%
[18]
  viability, T/C: 88.1%
Second compound 0.316 µM, first compound 0.000316 µM
  viability, T/C: 109%
Second compound 0.316 µM, first compound 0.001 µM
  viability, T/C: 85.4%
[21]
  viability, T/C: 83.6%
[22]
  viability, T/C: 97.4%
[23]
  viability, T/C: 81.3%
[24]
  viability, T/C: 83.2%
Second compound 1 µM, first compound 0.000316 µM
  viability, T/C: 102%
Second compound 1 µM, first compound 0.001 µM
  viability, T/C: 115%
[27]
  viability, T/C: 86.3%
[28]
  viability, T/C: 48.2%
[29]
  viability, T/C: 93.1%
[30]
  viability, T/C: 87.2%
Second compound 3.16 µM, first compound 0.000316 µM
  viability, T/C: 98%
Second compound 3.16 µM, first compound 0.001 µM
  viability, T/C: 71.9%
[33]
  viability, T/C: 90.9%
[34]
  viability, T/C: 70.9%
[35]
  viability, T/C: 83.2%
[36]
  viability, T/C: 84.1%
Second compound 10 µM, first compound 0.000316 µM
  viability, T/C: 62.7%
Second compound 10 µM, first compound 0.001 µM
  viability, T/C: 89%
[37]
  viability, T/C: 94.6%
[38]
  viability, T/C: 81.5%
[39]
  viability, T/C: 91.6%
[40]
  viability, T/C: 67.8%

## CCN1CCN(Cc2ccc(Nc3ncc(F)c(-c4cc(F)c5nc(C)n(C(C)C)c5c4)n3)nc2)CC1 + CC(Nc1ncnc2nc[nH]c12)c1cc2cccc(Cl)c2c(=O)n1-c1ccccc1
Second compound 0.0316 µM
  IC50: 223 nM
Second compound 0.1 µM
  IC50: 246 nM
Second compound 0.316 µM
  IC50: 185 nM
Second compound 1 µM
  IC50: 215 nM
Second compound 3.16 µM
  IC50: 164 nM
Second compound 10 µM
  IC50: 58.9 nM
[9]
  viability, T/C: 90.2%
[10]
  viability, T/C: 85.8%
[11]
  viability, T/C: 71.4%
[12]
  viability, T/C: 58.9%
[13]
  viability, T/C: 46.8%
[14]
  viability, T/C: 37.3%
[15]
  viability, T/C: 95.7%
[16]
  viability, T/C: 92.6%
[17]
  viability, T/C: 73.8%
[18]
  viability, T/C: 62.9%
[19]
  viability, T/C: 41%
[20]
  viability, T/C: 48.2%
[21]
  viability, T/C: 79.4%
[22]
  viability, T/C: 85%
[23]
  viability, T/C: 70.3%
[24]
  viability, T/C: 53.4%
[25]
  viability, T/C: 49.1%
[26]
  viability, T/C: 35.2%
[27]
  viability, T/C: 77%
[28]
  viability, T/C: 86%
[29]
  viability, T/C: 66.7%
[30]
  viability, T/C: 64.4%
[31]
  viability, T/C: 43.1%
[32]
  viability, T/C: 31.5%
[33]
  viability, T/C: 74.3%
[34]
  viability, T/C: 68%
[35]
  viability, T/C: 57.5%
[36]
  viability, T/C: 56.8%
Second compound 3.16 µM, first compound 0.316 µM
  viability, T/C: 43.6%
Second compound 3.16 µM, first compound 1 µM
  viability, T/C: 40.1%
[37]
  viability, T/C: 59.3%
[38]
  viability, T/C: 82.1%
[39]
  viability, T/C: 63.4%
[40]
  viability, T/C: 39%
Second compound 10 µM, first compound 0.316 µM
  viability, T/C: 38.3%
Second compound 10 µM, first compound 1 µM
  viability, T/C: 34.6%

## Cc1nc(NC(=O)N2CCCC2C(N)=O)sc1-c1ccnc(C(C)(C)C(F)(F)F)c1 (stereo not given)
Compound 1 µM
  viability, T/C: 72.2% [middle of 8 runs]
Compound 10 µM
  viability, T/C: 48.2% [middle of 8 runs]

## CC1(C)CCC(CN2CCN(c3ccc(C(=O)NS(=O)(=O)c4ccc(NCC5CCOCC5)c([N+](=O)[O-])c4)c(Oc4cnc5[nH]ccc5c4)c3)CC2)=C(c2ccc(Cl)cc2)C1 + COc1c(OCCCN2CCOCC2)ccc2c3n(c(=NC(=O)c4cnc(N)nc4)nc12)CCN3
Second compound 0.00316 µM
  IC50: > 10000 nM
Second compound 0.01 µM
  IC50: > 10000 nM
Second compound 0.0316 µM
  IC50: > 10000 nM
Second compound 0.1 µM
  IC50: 10000 nM
Second compound 0.316 µM
  IC50: < 31.6 nM
Second compound 1 µM
  IC50: < 31.6 nM
[1]
  viability, T/C: 98.6%
[2]
  viability, T/C: 99.3%
[3]
  viability, T/C: 92.7%
[4]
  viability, T/C: 110%
Second compound 0.00316 µM, first compound 3.16 µM
  viability, T/C: 84.8%
Second compound 0.00316 µM, first compound 10 µM
  viability, T/C: 93.1%
[5]
  viability, T/C: 108%
[6]
  viability, T/C: 85.6%
[7]
  viability, T/C: 83.7%
[8]
  viability, T/C: 66.8%
Second compound 0.01 µM, first compound 3.16 µM
  viability, T/C: 82.4%
Second compound 0.01 µM, first compound 10 µM
  viability, T/C: 84.8%
[11]
  viability, T/C: 67.7%
[12]
  viability, T/C: 68.6%
[13]
  viability, T/C: 71.1%
[14]
  viability, T/C: 68.5%
Second compound 0.0316 µM, first compound 3.16 µM
  viability, T/C: 69.5%
Second compound 0.0316 µM, first compound 10 µM
  viability, T/C: 74%
[17]
  viability, T/C: 66.5%
[18]
  viability, T/C: 44.7%
[19]
  viability, T/C: 56.8%
[20]
  viability, T/C: 52.2%
Second compound 0.1 µM, first compound 3.16 µM
  viability, T/C: 52.5%
Second compound 0.1 µM, first compound 10 µM
  viability, T/C: 47.3%
[23]
  viability, T/C: 27.1%
[24]
  viability, T/C: 36.2%
[25]
  viability, T/C: 30%
[26]
  viability, T/C: 33.2%
Second compound 0.316 µM, first compound 3.16 µM
  viability, T/C: 33.6%
Second compound 0.316 µM, first compound 10 µM
  viability, T/C: 40.1%
[29]
  viability, T/C: 34.6%
[30]
  viability, T/C: 39.5%
[31]
  viability, T/C: 38.9%
[32]
  viability, T/C: 29.3%
Second compound 1 µM, first compound 3.16 µM
  viability, T/C: 34.9%
Second compound 1 µM, first compound 10 µM
  viability, T/C: 32.6%
